Experimental findings from ChEMBL document CHEMBL2040736, “Design of potent and selective hybrid inhibitors of the mitotic kinase Nek2: structure-activity relationship, structural biology, and cellular activity” (J Med Chem, 2012) are described below.

Assay [1] concerns the target Protein kinase C zeta type (Homo sapiens) (UniProt Q05513). Description: Inhibition of PKCzeta at 1 uM incubated for 30 mins prior to substrate addition study done at apparent ATP Km for enzyme.
Assay [2] has as its target Tyrosine-protein kinase Lyn (Homo sapiens, UniProt P07948). The assay is described as follows: Inhibition of LYN incubated for 30 mins prior to substrate addition study done at apparent ATP Km for enzyme.
Assay [3] has as its target Mitogen-activated protein kinase 3 (Homo sapiens) (UniProt P27361). The assay is described as follows: Inhibition of Erk1 at 1 uM incubated for 30 mins prior to substrate addition study done at apparent ATP Km for enzyme.
Another assay has as its target T1, Aurora kinase A (Homo sapiens, UniProt O14965).
T1 sequence (O14965 whole entry): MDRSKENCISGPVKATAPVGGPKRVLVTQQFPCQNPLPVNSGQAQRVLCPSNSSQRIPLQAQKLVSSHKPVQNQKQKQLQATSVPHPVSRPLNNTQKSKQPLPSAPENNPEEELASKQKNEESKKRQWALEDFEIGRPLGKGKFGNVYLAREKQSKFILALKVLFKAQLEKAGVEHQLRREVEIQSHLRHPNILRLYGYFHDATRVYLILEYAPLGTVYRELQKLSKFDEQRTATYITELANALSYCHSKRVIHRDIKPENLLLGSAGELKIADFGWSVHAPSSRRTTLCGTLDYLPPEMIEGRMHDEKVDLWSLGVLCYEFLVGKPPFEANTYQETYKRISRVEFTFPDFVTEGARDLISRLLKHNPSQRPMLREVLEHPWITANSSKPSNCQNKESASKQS
Description: Inhibition of Aurora A kinase by caliper method.

Assay [4] addresses Tyrosine-protein kinase Lck (Homo sapiens, UniProt P06239). The assay is described as follows: Inhibition of LCK at 1 uM incubated for 30 mins prior to substrate addition study done at apparent ATP Km for enzyme.
Assay [5] deals with T2, Tyrosine-protein kinase ABL1 (Homo sapiens, UniProt P00519). The assay is described as follows: Inhibition of ABL at 1 uM.
Assay [6] is described as follows: Inhibition of CH1D incubated for 30 mins prior to substrate addition study done at apparent ATP Km for enzyme.
For assay [7], the target named is Proto-oncogene tyrosine-protein kinase Src (Homo sapiens, UniProt P12931). The assay is described as follows: Inhibition of SRC incubated for 30 mins prior to substrate addition study done at apparent ATP Km for enzyme.
Assay [8] deals with Cyclin-dependent kinase 2 (Homo sapiens, UniProt P24941). The assay is described as follows: Inhibition of CDK2 by caliper method.
Assay [9] addresses Mitogen-activated protein kinase 14 (Homo sapiens) (UniProt Q16539). Description: Inhibition of p38alpha at 1 uM incubated for 30 mins prior to substrate addition study done at apparent ATP Km for enzyme.
For assay [10], the target named is Glycogen synthase kinase-3 beta (Homo sapiens, UniProt P49841). The assay is described as follows: Inhibition of GSK3beta incubated for 30 mins prior to substrate addition study done at apparent ATP Km for enzyme.
Assay [11] concerns the target Ribosomal protein S6 kinase alpha-1 (Homo sapiens) (UniProt Q15418). Description: Inhibition of RSK1 at 1 uM incubated for 30 mins prior to substrate addition study done at apparent ATP Km for enzyme.
Assay [12] deals with Insulin receptor (Homo sapiens) (UniProt P06213). Description: Inhibition of INSR at 1 uM incubated for 30 mins prior to substrate addition study done at apparent ATP Km for enzyme.
Another assay deals with U2OS. The assay is described as follows: Growth inhibition of human U2OS cells after 92 hrs by CellTiter-Blue assay. The assay is classed as functional. For orientation: Alamar Blue is a resazurin reagent that responds to reducing activity.
The target of assay [13] is Hepatocyte growth factor receptor (Homo sapiens, UniProt P08581). The assay is described as follows: Inhibition of MET incubated for 30 mins prior to substrate addition study done at apparent ATP Km for enzyme.
Assay [14] addresses Serine/threonine-protein kinase D2 (Homo sapiens, UniProt Q9BZL6). Description: Inhibition of PKD2 incubated for 30 mins prior to substrate addition study done at apparent ATP Km for enzyme.
Assay [15] has as its target Serine/threonine-protein kinase Chk2 (Homo sapiens, UniProt O96017). The following applies: 1 uM.
In assay [16] the target is T2, Tyrosine-protein kinase ABL1. Description: Inhibition of ABL at 1 uM incubated for 30 mins prior to substrate addition study done at apparent ATP Km for enzyme.
Assay [17] can be described thus: Inhibition of CH1D at 1 uM incubated for 30 mins prior to substrate addition study done at apparent ATP Km for enzyme.
In assay [18] the target is MAP kinase-activated protein kinase 5 (Homo sapiens) (UniProt Q8IW41). Description: Inhibition of PRAK at 1 uM incubated for 30 mins prior to substrate addition study done at apparent ATP Km for enzyme.

T2 sequence (P00519 whole entry): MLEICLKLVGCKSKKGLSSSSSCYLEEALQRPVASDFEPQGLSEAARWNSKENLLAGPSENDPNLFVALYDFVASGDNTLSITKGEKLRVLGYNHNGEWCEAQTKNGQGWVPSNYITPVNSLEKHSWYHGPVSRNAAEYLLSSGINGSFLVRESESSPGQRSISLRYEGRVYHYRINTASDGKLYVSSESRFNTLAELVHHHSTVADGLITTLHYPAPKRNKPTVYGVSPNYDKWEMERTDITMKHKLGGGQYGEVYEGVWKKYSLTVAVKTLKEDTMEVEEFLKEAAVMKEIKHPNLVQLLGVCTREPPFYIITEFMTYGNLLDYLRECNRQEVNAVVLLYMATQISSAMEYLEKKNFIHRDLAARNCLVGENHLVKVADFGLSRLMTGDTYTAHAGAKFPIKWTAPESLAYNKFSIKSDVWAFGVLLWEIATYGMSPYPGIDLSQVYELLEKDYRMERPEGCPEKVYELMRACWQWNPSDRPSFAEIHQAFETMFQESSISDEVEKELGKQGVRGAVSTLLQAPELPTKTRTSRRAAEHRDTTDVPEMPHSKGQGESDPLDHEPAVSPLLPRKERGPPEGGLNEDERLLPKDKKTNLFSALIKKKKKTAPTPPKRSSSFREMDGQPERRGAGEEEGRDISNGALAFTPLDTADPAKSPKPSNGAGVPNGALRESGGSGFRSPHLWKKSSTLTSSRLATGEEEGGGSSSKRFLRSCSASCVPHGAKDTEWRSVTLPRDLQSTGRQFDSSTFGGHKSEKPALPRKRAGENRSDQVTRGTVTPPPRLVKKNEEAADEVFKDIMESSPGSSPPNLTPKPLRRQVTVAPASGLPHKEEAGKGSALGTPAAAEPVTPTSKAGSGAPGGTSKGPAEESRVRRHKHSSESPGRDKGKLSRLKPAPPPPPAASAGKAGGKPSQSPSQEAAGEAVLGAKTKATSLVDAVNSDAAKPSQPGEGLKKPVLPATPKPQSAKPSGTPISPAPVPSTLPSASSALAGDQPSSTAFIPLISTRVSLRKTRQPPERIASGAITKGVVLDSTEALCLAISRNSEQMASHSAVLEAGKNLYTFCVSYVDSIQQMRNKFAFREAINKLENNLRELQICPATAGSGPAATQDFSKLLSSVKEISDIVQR
Mitogen-activated protein kinase 14 (Homo sapiens), sequence (Q16539 whole entry): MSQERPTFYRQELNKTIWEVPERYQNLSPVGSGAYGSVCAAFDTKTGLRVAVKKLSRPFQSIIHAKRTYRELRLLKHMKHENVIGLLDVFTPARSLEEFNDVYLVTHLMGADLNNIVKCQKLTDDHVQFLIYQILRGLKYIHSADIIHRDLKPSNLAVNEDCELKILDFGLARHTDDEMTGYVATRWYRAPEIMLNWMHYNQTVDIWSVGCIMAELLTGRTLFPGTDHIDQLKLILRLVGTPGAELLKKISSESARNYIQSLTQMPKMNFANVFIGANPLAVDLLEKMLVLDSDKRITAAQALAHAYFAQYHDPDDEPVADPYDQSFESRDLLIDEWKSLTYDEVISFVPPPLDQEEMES
Insulin receptor (Homo sapiens), sequence (P06213 28-758 limits assumed): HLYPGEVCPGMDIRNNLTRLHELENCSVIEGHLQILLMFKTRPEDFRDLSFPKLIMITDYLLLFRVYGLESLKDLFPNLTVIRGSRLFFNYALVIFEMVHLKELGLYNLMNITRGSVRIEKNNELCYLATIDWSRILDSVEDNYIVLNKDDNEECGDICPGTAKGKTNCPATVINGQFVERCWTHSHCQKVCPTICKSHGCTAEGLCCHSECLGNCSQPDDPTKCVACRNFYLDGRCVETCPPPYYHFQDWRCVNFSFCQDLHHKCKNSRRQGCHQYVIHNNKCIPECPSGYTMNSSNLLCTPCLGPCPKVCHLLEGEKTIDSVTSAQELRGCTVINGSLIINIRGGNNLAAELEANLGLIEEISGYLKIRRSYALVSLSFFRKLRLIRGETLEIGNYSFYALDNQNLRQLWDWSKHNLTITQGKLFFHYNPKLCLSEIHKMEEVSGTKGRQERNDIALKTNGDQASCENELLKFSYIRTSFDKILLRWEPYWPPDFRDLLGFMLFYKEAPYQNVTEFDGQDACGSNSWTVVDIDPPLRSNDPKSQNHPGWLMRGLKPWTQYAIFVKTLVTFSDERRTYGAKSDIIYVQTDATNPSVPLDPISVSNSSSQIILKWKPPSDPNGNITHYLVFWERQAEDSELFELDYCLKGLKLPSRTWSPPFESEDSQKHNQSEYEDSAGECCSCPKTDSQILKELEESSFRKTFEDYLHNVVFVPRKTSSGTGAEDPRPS
Insulin receptor (Homo sapiens), sequence (P06213 763-1382 limits assumed): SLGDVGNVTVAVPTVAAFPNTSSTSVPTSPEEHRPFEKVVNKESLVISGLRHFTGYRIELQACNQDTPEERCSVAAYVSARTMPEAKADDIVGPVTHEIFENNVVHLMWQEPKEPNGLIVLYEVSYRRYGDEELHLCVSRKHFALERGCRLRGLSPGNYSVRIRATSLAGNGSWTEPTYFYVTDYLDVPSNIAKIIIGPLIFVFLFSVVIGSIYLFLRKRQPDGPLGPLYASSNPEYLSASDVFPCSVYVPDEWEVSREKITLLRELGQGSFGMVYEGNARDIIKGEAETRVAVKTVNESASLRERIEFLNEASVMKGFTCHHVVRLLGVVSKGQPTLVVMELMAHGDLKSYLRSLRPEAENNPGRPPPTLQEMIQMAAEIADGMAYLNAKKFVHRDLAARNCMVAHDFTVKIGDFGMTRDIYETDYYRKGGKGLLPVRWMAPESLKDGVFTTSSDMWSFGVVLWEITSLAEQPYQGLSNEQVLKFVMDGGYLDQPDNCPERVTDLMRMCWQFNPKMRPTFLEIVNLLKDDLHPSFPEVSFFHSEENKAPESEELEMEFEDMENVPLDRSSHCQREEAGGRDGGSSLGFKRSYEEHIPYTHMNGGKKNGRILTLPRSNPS
Glycogen synthase kinase-3 beta, sequence (P49841 whole entry): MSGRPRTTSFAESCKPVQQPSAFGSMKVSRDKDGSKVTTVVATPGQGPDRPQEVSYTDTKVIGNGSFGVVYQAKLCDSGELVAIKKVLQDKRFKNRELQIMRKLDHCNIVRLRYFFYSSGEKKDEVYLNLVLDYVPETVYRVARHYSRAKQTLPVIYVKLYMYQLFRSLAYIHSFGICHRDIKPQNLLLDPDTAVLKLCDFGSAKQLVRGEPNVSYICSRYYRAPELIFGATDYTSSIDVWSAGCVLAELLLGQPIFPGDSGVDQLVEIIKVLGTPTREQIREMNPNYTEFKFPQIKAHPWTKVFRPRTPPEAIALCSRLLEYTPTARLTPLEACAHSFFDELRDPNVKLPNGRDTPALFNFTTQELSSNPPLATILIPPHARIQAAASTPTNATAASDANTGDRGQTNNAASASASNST
Proto-oncogene tyrosine-protein kinase Src, sequence (P12931 2-536 limits assumed): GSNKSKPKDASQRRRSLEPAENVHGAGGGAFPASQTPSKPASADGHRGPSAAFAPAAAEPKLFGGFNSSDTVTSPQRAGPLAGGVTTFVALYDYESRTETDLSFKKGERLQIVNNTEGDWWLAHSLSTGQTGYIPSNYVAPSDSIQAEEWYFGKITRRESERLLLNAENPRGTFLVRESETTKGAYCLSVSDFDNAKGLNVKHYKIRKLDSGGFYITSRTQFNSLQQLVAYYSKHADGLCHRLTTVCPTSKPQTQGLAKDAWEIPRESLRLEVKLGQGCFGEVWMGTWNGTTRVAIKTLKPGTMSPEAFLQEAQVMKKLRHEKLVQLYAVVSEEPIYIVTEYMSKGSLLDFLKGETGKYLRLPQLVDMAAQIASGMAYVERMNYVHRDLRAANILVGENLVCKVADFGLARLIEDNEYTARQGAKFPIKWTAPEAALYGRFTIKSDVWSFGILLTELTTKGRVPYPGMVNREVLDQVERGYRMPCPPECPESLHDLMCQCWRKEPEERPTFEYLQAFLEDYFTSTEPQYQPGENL
Mitogen-activated protein kinase 3 (Homo sapiens), sequence (P27361 whole entry): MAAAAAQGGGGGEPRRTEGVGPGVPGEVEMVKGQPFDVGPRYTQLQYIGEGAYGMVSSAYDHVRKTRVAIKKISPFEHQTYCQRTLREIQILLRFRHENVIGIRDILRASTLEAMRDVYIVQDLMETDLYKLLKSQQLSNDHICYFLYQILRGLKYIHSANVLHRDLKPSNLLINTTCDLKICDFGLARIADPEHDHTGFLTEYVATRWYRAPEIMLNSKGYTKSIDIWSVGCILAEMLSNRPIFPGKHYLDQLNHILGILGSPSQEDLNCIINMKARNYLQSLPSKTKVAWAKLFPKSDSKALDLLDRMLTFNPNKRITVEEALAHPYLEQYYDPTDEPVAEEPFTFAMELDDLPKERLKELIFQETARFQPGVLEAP
Serine/threonine-protein kinase Chk2, sequence (O96017 whole entry): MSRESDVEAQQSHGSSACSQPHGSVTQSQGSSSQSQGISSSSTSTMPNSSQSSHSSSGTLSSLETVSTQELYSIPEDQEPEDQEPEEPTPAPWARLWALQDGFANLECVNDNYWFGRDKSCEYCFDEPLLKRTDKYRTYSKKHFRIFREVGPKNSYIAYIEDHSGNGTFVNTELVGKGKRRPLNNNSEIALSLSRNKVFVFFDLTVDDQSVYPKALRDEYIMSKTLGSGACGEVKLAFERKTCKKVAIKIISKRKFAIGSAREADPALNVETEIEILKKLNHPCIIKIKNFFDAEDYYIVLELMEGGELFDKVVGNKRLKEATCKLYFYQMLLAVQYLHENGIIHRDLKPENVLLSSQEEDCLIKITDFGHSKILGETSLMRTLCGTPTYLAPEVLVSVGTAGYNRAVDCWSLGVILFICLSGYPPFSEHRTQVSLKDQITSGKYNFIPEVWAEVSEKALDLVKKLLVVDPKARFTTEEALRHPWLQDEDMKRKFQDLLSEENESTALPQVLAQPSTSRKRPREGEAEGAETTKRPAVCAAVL

The term inhibition denotes the change of the read-out against control, counted positive when it falls. For orientation: IC50 means the concentration needed to halve the response being measured. As usually defined, the GI50 is the concentration giving 50% growth inhibition. Read a high GI50 as lower sensitivity of the cells. Consider `C[C@H](/C=C\C(F)(F)F)Oc1cc(-c2cc(-c3cc(CN(C)C)cs3)cnc2N)ccc1C(N)=O`, for which the inhibition was found to be 12% in assay [1]; 2% in [3]; 89% in assay [4]; 0% in assay [9]; 29% in assay [11]; 0% in [12]. The inhibition amounted to 32% in assay [15], 46% in assay [16], 67% in [17] and 7% in [18]. The IC50 in assay [2] amounted to 1360 nM; against Aurora kinase A, 4.94 µM; in assay [5], 1110 nM; in assay [6], 430 nM; in [7], 840 nM; in assay [8] it was 4.57 µM. For the same compound, the values for the IC50 in assay [10], in assay [13] and in assay [14] were 70 nM, 1170 nM and 330 nM, respectively. Also, in the assay with U2OS, it took 1820 nM to inhibit growth by half (GI50).
